# Test results as given in US20220119379A1, “IMMUNOMODULATOR” (HITGEN INC., priority 2019, published 2022).
# pEC50, pKd: −log10 of the molar value. Read-outs that look alike come from different tables or passages of the source.
# Experiments:
# [1] = molecular target: T1, Sting protein (Homo sapiens, UniProt Q86WV6, G230A/H232R/R293Q/R71H); experiment: Agonistic function test on Sting protein: IFN-β and CXCL10 (IP10) cytokines produced by THP1 cells (ELISA); type: cell-based; conditions: for pEC50: 18 hours, ELISA of supernatant; for activity of stimulating IFN-β and CXCL10 (IP10) cytokines produced by THP1 cells (in words): listed compounds compared with the reference compound
# T1 construct: endogenous in cells; host or cells: THP1 cells (Shanghai Cell Bank)
# Experimental: In this experiment, the function of sting agonist was evaluated by detecting the changes of IFN-β and CXCL10 (IP10) cytokines produced by human peripheral blood mononuclear cell line THP1 cells (Shanghai Cell Bank) stimulated by the compounds. On the first day of the experiment, the ELISA plate was coated according to the IFN-β (R&D, #DY814-05) and IP10 (BD, #550926) ELISA test kit instructions. The compound was dissolved into DMSO stock solution and diluted with culture medium to a 2× working concentration, added to a 96-well plate, 100 μL per well. The THP1 cells in the logarithmic growth phase were taken to count, and were diluted to a concentration of 2*10^6/mL, added to the above-mentioned 96-well plate containing the compounds, with […], per well, mixed well, and incubated in a 37° C., 5% CO2 incubator for 18 hours. On the second day, the above cell culture supernatant was taken, 100 μL per well, and tested according to IFN-β and IP10 ELISA test kits respectively. The OD450 value was read, and converted into IFN-β and IP10 concentration according to the standard curve, and fitted with GraphPad 5.0 to calculate the EC50 value of the dose-efficiency curve.
# [2] = molecular target: Sting protein (Homo sapiens, UniProt Q86WV6); experiment: Binding affinity test of the compound and Sting protein by protein thermal transfer test (TSA); conditions: Kd fitted from change of ΔTm with compound concentration
# Experimental: The protein thermal transfer test (TSA) was used to determine the binding affinity of the compound to Sting protein. The 100 ug/ml Sting protein was mixed with different concentrations of the compound and 5× SYPRO Orange dye in a buffer of 20 mM Hepes, 150 mM NaCl, 1 mM MgCl2, 1 mM DTT, pH=7.5. The protein dissolution curve was measured on a qPCR instrument, the Tm value was fitted with Protein Thermal Shift Software 1.3 software, and the Tm difference of the protein was calculated when different concentrations of compound and no compound were added. The dissociation constant Kd was fitted and obtained according to the change of ΔTm with the concentration of the compound. […] The Kd value of each compound is classified according to the following instructions: […]
# Sequence of Sting protein (Homo sapiens, UniProt Q86WV6) (Q86WV6 whole entry H232R, species assumed): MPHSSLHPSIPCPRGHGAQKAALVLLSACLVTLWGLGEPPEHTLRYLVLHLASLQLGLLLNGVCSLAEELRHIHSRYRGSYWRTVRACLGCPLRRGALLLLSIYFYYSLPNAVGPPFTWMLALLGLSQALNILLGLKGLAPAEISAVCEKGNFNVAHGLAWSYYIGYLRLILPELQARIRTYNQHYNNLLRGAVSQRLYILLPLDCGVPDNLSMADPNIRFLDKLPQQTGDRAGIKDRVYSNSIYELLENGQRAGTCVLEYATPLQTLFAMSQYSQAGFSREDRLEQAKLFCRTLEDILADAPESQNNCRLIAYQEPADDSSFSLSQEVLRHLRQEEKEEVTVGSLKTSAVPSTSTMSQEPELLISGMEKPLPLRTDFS
# T1 sequence (Q86WV6 whole entry R71H/G230A/H232R/R293Q): as the sequence (Q86WV6 whole entry H232R, species assumed) above, with R71H, G230A, R293Q counted along it
SMILES,pEC50 ([1]; read-out: IFN-β EC50),pEC50 ([1]; read-out: IP10 EC50),pKd [2],activity of stimulating IFN-β and CXCL10 (IP10) cytokines produced by THP1 cells (in words) [1]
CCc1nc(C)sc1C(=O)Nc1nc2cc(C(N)=O)cc(OCCCN3CCOCC3)c2n1C/C=C/Cn1c(NC(=O)c2cc(C)nn2CC)nc2cc(C(N)=O)cc(OC)c21 [Example 1],6.00 to 7.00,7.00 to 8.00,5.00 to 6.00,
CCc1nc(C)sc1C(=O)Nc1nc2cc(C(N)=O)cc(OC)c2n1C/C=C/Cn1c(NC(=O)c2sc(C)nc2CC)nc2cc(C(N)=O)cc(OCCCN3CCOCC3)c21 [Example 3],6.00 to 7.00,7.00 to 8.00,5.00 to 6.00,
CCc1nc(C)sc1C(=O)Nc1nc2cc(C(N)=O)cc(OCCCN3CCOCC3)c2n1C/C=C/Cn1c(NC(=O)c2cc(C)nn2CC)nc2cc(C(N)=O)cc(SC)c21 [Example 4],7.00 to 8.00,> 8.00,5.00 to 6.00,comparable or even higher activity
CCc1nc(C)sc1C(=O)Nc1nc2cc(C(N)=O)cc(OC)c2n1C/C=C/Cn1c(NC(=O)c2cc(C)nn2CC)nc2cc(C(N)=O)cc(SCCCN3CCOCC3)c21 [Example 6],6.00 to 7.00,6.00 to 7.00,5.00 to 6.00,
"CCc1nc(C)sc1C(=O)Nc1nc2cc(C(N)=O)cc(OCCCN3CCN(C)CC3)c2n1C/C=C/Cn1c(NC(=O)c2cc(C)nn2CC)nc2cc(C(N)=O)cc(OC)c21 [Example 7, (E)-N-(5-carbamoyl-1-(4-(5-carbamoyl-2-(1-ethyl-3-methyl-1H-pyrazole-5-formylamino)-7-methoxy-1H-benzo[d]imidazol-1-yl)but-2-en-1-yl)-7-(3-(4-methylpiperazin-1-yl)propoxy)-1H-benzo[d]imidazol-2-yl)-4-ethyl-2-methylthiazole-5-formylamide]",6.00 to 7.00,6.00 to 7.00,5.00 to 6.00,
CCc1nc(C)sc1C(=O)Nc1nc2cc(C(N)=O)cc(OCCCN3CCN(CC)CC3)c2n1C/C=C/Cn1c(NC(=O)c2cc(C)nn2CC)nc2cc(C(N)=O)cc(OC)c21 [Example 8],6.00 to 7.00,7.00 to 8.00,5.00 to 6.00,
CCc1nc(C)sc1C(=O)Nc1nc2cc(C(N)=O)cc(OCCCN3CCN(C(C)C)CC3)c2n1C/C=C/Cn1c(NC(=O)c2cc(C)nn2CC)nc2cc(C(N)=O)cc(OC)c21 [Example 9],6.00 to 7.00,7.00 to 8.00,5.00 to 6.00,
CCc1nc(C)sc1C(=O)Nc1nc2cc(C(N)=O)cc(OCCCN3CCN(C4CC4)CC3)c2n1C/C=C/Cn1c(NC(=O)c2cc(C)nn2CC)nc2cc(C(N)=O)cc(OC)c21 [Example 10],6.00 to 7.00,7.00 to 8.00,5.00 to 6.00,
CCc1nc(C)sc1C(=O)Nc1nc2cc(C(N)=O)cc(OCCCN3CCN(C(C)=O)CC3)c2n1C/C=C/Cn1c(NC(=O)c2cc(C)nn2CC)nc2cc(C(N)=O)cc(OC)c21 [Example 11],6.00 to 7.00,7.00 to 8.00,5.00 to 6.00,
CCc1nc(C)sc1C(=O)Nc1nc2cc(C(N)=O)cc(OC)c2n1C/C=C/Cn1c(NC(=O)c2cc(C)nn2CC)nc2cc(C(N)=O)cc(OCCCN3CCN(C)CC3)c21 [Example 12],,6.00 to 7.00,5.00 to 6.00,

# The next lines start with the values.
pEC50 ([1]; read-out: IFN-β EC50),pEC50 ([1]; read-out: IP10 EC50),pKd [2],activity of stimulating IFN-β and CXCL10 (IP10) cytokines produced by THP1 cells (in words) [1],SMILES
6.00 to 7.00,7.00 to 8.00,5.00 to 6.00,,CCc1nc(C)sc1C(=O)Nc1nc2cc(C(N)=O)cc(OC)c2n1C/C=C/Cn1c(NC(=O)c2cc(C)nn2CC)nc2cc(C(N)=O)cc(OCCCN3CCN(CC)CC3)c21 [Example 13]
6.00 to 7.00,6.00 to 7.00,5.00 to 6.00,,CCc1nc(C)sc1C(=O)Nc1nc2cc(C(N)=O)cc(OC)c2n1C/C=C/Cn1c(NC(=O)c2cc(C)nn2CC)nc2cc(C(N)=O)cc(OCCCN3CCN(C(C)C)CC3)c21 [Example 14]
,6.00 to 7.00,5.00 to 6.00,,CCc1nc(C)sc1C(=O)Nc1nc2cc(C(N)=O)cc(OCCCN3CCN(C)CC3)c2n1C/C=C/Cn1c(NC(=O)c2cc(C)nn2CC)nc2cc(C(N)=O)cc(SC)c21 [Example 16]
6.00 to 7.00,7.00 to 8.00,5.00 to 6.00,,CCc1nc(C)sc1C(=O)Nc1nc2cc(C(N)=O)cc(OCCCN3CCN(C(C)C)CC3)c2n1C/C=C/Cn1c(NC(=O)c2cc(C)nn2CC)nc2cc(C(N)=O)cc(SC)c21 [Example 18]
> 8.00,> 8.00,5.00 to 6.00,comparable or even higher activity,CCc1nc(C)sc1C(=O)Nc1nc2cc(C(N)=O)cc(OCCCN3CCN(C4CC4)CC3)c2n1C/C=C/Cn1c(NC(=O)c2cc(C)nn2CC)nc2cc(C(N)=O)cc(SC)c21 [Example 19]
6.00 to 7.00,7.00 to 8.00,5.00 to 6.00,,CCc1nc(C)sc1C(=O)Nc1nc2cc(C(N)=O)cc(SC)c2n1C/C=C/Cn1c(NC(=O)c2cc(C)nn2CC)nc2cc(C(N)=O)cc(OCCCN3CCN(C)CC3)c21 [Example 20]
6.00 to 7.00,7.00 to 8.00,5.00 to 6.00,,CCc1nc(C)sc1C(=O)Nc1nc2cc(C(N)=O)cc(SC)c2n1C/C=C/Cn1c(NC(=O)c2cc(C)nn2CC)nc2cc(C(N)=O)cc(OCCCN3CCN(CC)CC3)c21 [Example 21]
6.00 to 7.00,7.00 to 8.00,5.00 to 6.00,,CCc1nc(C)sc1C(=O)Nc1nc2cc(C(N)=O)cc(SC)c2n1C/C=C/Cn1c(NC(=O)c2cc(C)nn2CC)nc2cc(C(N)=O)cc(OCCCN3CCN(C(C)C)CC3)c21 [Example 22]
7.00 to 8.00,7.00 to 8.00,5.00 to 6.00,comparable or even higher activity,CCc1nc(C)sc1C(=O)Nc1nc2cc(C(N)=O)cc(SC)c2n1C/C=C/Cn1c(NC(=O)c2cc(C)nn2CC)nc2cc(C(N)=O)cc(OCCCN3CCN(C4CC4)CC3)c21 [Example 23]
6.00 to 7.00,7.00 to 8.00,5.00 to 6.00,,CCC(=O)N1CCN(CCCOc2cc(C(N)=O)cc3nc(NC(=O)c4cc(C)nn4CC)n(C/C=C/Cn4c(NC(=O)c5sc(C)nc5CC)nc5cc(C(N)=O)cc(OC)c54)c23)CC1 [Example 30]
7.00 to 8.00,7.00 to 8.00,5.00 to 6.00,comparable or even higher activity,CCc1nc(C)sc1C(=O)Nc1nc2cc(C(N)=O)cc(OCCCN3CCN(C(C)=O)CC3)c2n1C/C=C/Cn1c(NC(=O)c2cc(C)nn2CC)nc2cc(C(N)=O)cc(SC)c21 [Example 35]
7.00 to 8.00,,5.00 to 6.00,comparable or even higher activity,CCc1nc(C)sc1C(=O)Nc1nc2cc(C(N)=O)cc(OCCCN3CCN(C(=O)OC)CC3)c2n1C/C=C/Cn1c(NC(=O)c2cc(C)nn2CC)nc2cc(C(N)=O)cc(SC)c21 [Example 40]
6.00 to 7.00,7.00 to 8.00,5.00 to 6.00,,CCc1nc(C)sc1C(=O)Nc1nc2cc(C(N)=O)cc(SC)c2n1C/C=C/Cn1c(NC(=O)c2cc(C)nn2CC)nc2cc(C(N)=O)cc(OCCCN3CCN(C(C)=O)CC3)c21 [Example 41]
,,5.00 to 6.00,,"CCn1nc(C)cc1C(=O)Nc1nc2cc(C(N)=O)cc(OCCCN3CCOCC3)c2n1C/C=C/Cn1c(NC(=O)c2cc(C)nn2CC)nc2cc(C(N)=O)cc(SC)c21 [Example 54, (E)-1-(4-(5-carbamoyl-2-(1-ethyl-3-methyl-1H-pyrazole-5-formylamino)-7-(3-morpholinopropoxy)-1H-benzo[d]imidazol-1-yl)but-2-en-1-yl)-2-(1-ethyl-3-methyl-1H-pyrazole-5-carboxamino)-7-(methylthio)-1H-benzo[d]imidazole-5-formylamide]"
